Reference: patent US20140314704A1, “Treatment of B Cell Lymphomas” (Senesco Technologies, Inc., priority 2011, published 2014)
Like-named read-outs stand apart in the source and are kept apart here.

What was measured:
Type in all cases: cell-based
KAS-6/1 = experiment: IC50 of multiple myeloma drugs alone and with IC20 SNS01-T, KAS-6/1; conditions: for fold less IC50 with IC20 SNS01-T: KAS-6/1, with versus without IC20 SNS01-T
U266 = experiment: IC50 of multiple myeloma drugs alone and with IC20 SNS01-T, U266; conditions: for IC50: Homo sapiens, U-266; for fold less IC50 with IC20 SNS01-T: U266, with versus without IC20 SNS01-T
RPMI-8226 = experiment: IC50 of multiple myeloma drugs alone and with IC20 SNS01-T, RPMI-8226; conditions: for IC50: Homo sapiens; for fold less IC50 with IC20 SNS01-T: RPMI-8226, with versus without IC20 SNS01-T
[1] = KAS-6/1, drug alone, read-out: IC50
[2] = KAS-6/1, with IC20 SNS01-T, read-out: IC50 with IC20 SNS01-T
[3] = U266, drug alone, read-out: IC50
[4] = U266, with IC20 SNS01-T, read-out: IC50 with IC20 SNS01-T
[5] = RPMI-8226, drug alone, read-out: IC50
[6] = RPMI-8226, with IC20 SNS01-T, read-out: IC50 with IC20 SNS01-T

SMILES	IC50 (KAS-6/1; [1])	IC50 (KAS-6/1; [2])	fold less IC50 with IC20 SNS01-T (KAS-6/1)	IC50 (U266; [3])	IC50 (U266; [4])	fold less IC50 with IC20 SNS01-T (U266)	IC50 (RPMI-8226; [5])	IC50 (RPMI-8226; [6])	fold less IC50 with IC20 SNS01-T (RPMI-8226)
CC(C)C[C@H](NC(=O)[C@H](Cc1ccccc1)NC(=O)c1cnccn1)B(O)O [Bortezomib, bortezomib]	7.31 nM	2.64 nM	~2.8 ×	2.86 nM	0.83 nM	~3.4 ×	2.12 nM	1.51 nM	~1.4 ×
Nc1cccc2c1CN(C1CCC(=O)NC1=O)C2=O (stereo not drawn) [Lenalidomide, lenalidomide]	69800 nM	2370 nM	~29 ×	62000 nM	1420 nM	~43.7 ×	84900 nM	3280 nM	25.9 ×
